The values that follow come from PubChem BioAssay AID248 (DTP/NCI, 2004).

“And” between values parts separate entries of the source, which are not always exact repeats. Equal entries are not always repeated. Inconclusive results and toxic doses are left out.

The test system of the test is L1210 leukemia ip in BDF1 mice, survival T/C. Kind of test: NCI In Vivo Anticancer Drug Screen. Data for tumor model L1210 Leukemia (intraperitoneal) in B6D2F1 (BDF1) mice. The note with it: endpoint: mean survival time, higher = longer survival. In short, it runs like this:
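Antitumor effect is assessed in tumor-bearing animals. Survival in the compound arm is compared with a vehicle-dosed control arm and expressed as their quotient.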

Where [1] appears, read: dose: 100.0 mg/kg/injection, schedule: Q01DX009 (ip), vehicle: saline.
The mark [2] stands for this setting: dose: 100.0 mg/kg/injection, schedule: Q04DX003 (ip), vehicle: saline with Tween-80.
Setting [3] is: dose: 400.0 mg/kg/injection, schedule: Q04DX003 (ip), vehicle: saline with Tween-80.
[4] abbreviates: dose: 100.0 mg/kg/injection, schedule: Q01DX009 (ip), vehicle: Klucel (hydroxypropylcellulose) (HPC).
Setting [5] is: dose: 200.0 mg/kg/injection, schedule: Q01DX009 (ip), vehicle: Klucel (hydroxypropylcellulose) (HPC).
[6] abbreviates: dose: 50.0 mg/kg/injection, schedule: Q01DX009 (ip), vehicle: Klucel (hydroxypropylcellulose) (HPC).
Setting [7] is: dose: 25.0 mg/kg/injection, schedule: Q01DX009 (ip), vehicle: Klucel (hydroxypropylcellulose) (HPC).
The mark [8] stands for this setting: dose: 100.0 mg/kg/injection, schedule: Q04DX003 (ip), vehicle: Klucel (hydroxypropylcellulose) (HPC).

As for `Cc1cccc(C)c1/C=C/S(=O)(=O)c1ccccc1`, the T/C was 98 % of control (dose: 100.0 mg/kg/injection, schedule: Q01DX001 (ip), vehicle: acetone); 94 % of control under setting [1]; 109 % of control (dose: 100.0 mg/kg/injection, schedule: Q04DX003 (ip), vehicle: acetone); 98 % of control (dose: 200.0 mg/kg/injection, schedule: Q01DX001 (ip), vehicle: acetone); 103 % of control (dose: 200.0 mg/kg/injection, schedule: Q01DX009 (ip), vehicle: saline); 103 % of control (dose: 200.0 mg/kg/injection, schedule: Q04DX003 (ip), vehicle: acetone). For the same compound, the T/C reads like this: (dose: 400.0 mg/kg/injection, schedule: Q01DX001 (ip), vehicle: acetone) 106 % of control; (dose: 400.0 mg/kg/injection, schedule: Q01DX009 (ip), vehicle: saline) 94 % of control; (dose: 400.0 mg/kg/injection, schedule: Q04DX003 (ip), vehicle: acetone) 101 % of control.

For the compound `NC(=O)c1cc([N+](=O)[O-])ccc1N=NN(CCCl)CCCl`, the T/C is, setting by setting: under setting [2], 114 % of control; (dose: 177.0 mg/kg/injection, schedule: Q04DX003 (ip), vehicle: saline with Tween-80) 111 % of control; (dose: 200.0 mg/kg/injection, schedule: Q01DX009 (ip), vehicle: saline with Tween-80) 107 % of control; (dose: 266.0 mg/kg/injection, schedule: Q04DX003 (ip), vehicle: saline with Tween-80) 114 % of control; under setting [3], 165 % of control.

For `CC(Oc1nc2c(c(=O)n(C)c(=O)n2C)n1C)C1CCCC1` (stereo unspecified), the T/C runs as follows: (dose: 50.0 mg/kg/injection, schedule: Q01DX001 (ip), vehicle: other) 103 % of control; (dose: 100.0 mg/kg/injection, schedule: Q01DX001 (ip), vehicle: other) 100 % of control.

As to `CCC[N+](C)(C)CC`, the T/C is 104 % of control (dose: 37.5 mg/kg/injection, schedule: Q01DX001 (ip), vehicle: saline) and 95 % of control (dose: 75.0 mg/kg/injection, schedule: Q01DX001 (ip), vehicle: saline).

As for `Oc1c(Br)cc(Br)cc1C=NCC1CCC(CN=Cc2cc(Br)cc(Br)c2O)CC1` (stereo unspecified), the T/C is 92 % of control (dose: 100.0 mg/kg/injection, schedule: Q01DX009 (ip), vehicle: saline with Tween-80); 110 % of control and 90 % of control (dose: 100.0 mg/kg/injection, schedule: Q04DX002 (ip), vehicle: saline with Tween-80); 96 % of control and 90 % of control (dose: 200.0 mg/kg/injection, schedule: Q04DX002 (ip), vehicle: saline with Tween-80); 92 % of control and 94 % of control (dose: 400.0 mg/kg/injection, schedule: Q01DX009 (ip), vehicle: saline with Tween-80); 106 % of control and 90 % of control (dose: 400.0 mg/kg/injection, schedule: Q04DX002 (ip), vehicle: saline with Tween-80).

`O=C1CCCC[CH]1[Hg][Cl]` (stereo unspecified): the T/C is 95 % of control (dose: 1.25 mg/kg/injection, schedule: Q01DX001 (ip), vehicle: saline); 96 % of control (dose: 2.5 mg/kg/injection, schedule: Q01DX001 (ip), vehicle: saline); 87 % of control (dose: 5.0 mg/kg/injection, schedule: Q01DX001 (ip), vehicle: saline).

On to `CC(C)(CC(=O)O)SCCSC(C)(C)CC(=O)O`, for which the T/C under setting [4] was 97 % of control; the T/C under setting [5] was 95 % of control; the T/C (dose: 400.0 mg/kg/injection, schedule: Q01DX009 (ip), vehicle: Klucel (hydroxypropylcellulose) (HPC)) is 92 % of control.

With `Nc1[nH][nH]c(=O)c1N=O`, the T/C was 95 % of control under setting [6]; 111 % of control under setting [4]; 103 % of control (dose: 100.0 mg/kg/injection, schedule: Q04DX002 (ip), vehicle: saline); 88 % of control under setting [5]; 111 % of control (dose: 200.0 mg/kg/injection, schedule: Q04DX002 (ip), vehicle: saline); 92 % of control (dose: 400.0 mg/kg/injection, schedule: Q04DX002 (ip), vehicle: saline).

For `NC(CC(O)c1ccccc1)c1ccccc1` (stereo unspecified), the T/C (dose: 75.0 mg/kg/injection, schedule: Q01DX001 (ip), vehicle: carboxymethylcellulose (CMC)) was 96 % of control.

In the case of `CN(C)C=Nc1ccc([N+](=O)[O-])c2ccccc12`, the T/C under setting [2] was 103 % of control; the T/C (dose: 200.0 mg/kg/injection, schedule: Q04DX003 (ip), vehicle: saline with Tween-80) was 106 % of control; the T/C under setting [3] was 104 % of control.

As for `CCN(CC)c1ccc(/C=N/N=C(N)N)cc1`, the T/C reads like this: (dose: 3.8 mg/kg/injection, schedule: Q01DX Z (ip), vehicle: other) 109 % of control; (dose: 7.5 mg/kg/injection, schedule: Q01DX Z (ip), vehicle: other) 88 % of control; (dose: 15.0 mg/kg/injection, schedule: Q01DX Z (ip), vehicle: other) 97 % of control.

Turning to `Nc1nc(Cl)nc2c1ncn2C1OC(CO)C(O)C1O` (stereo unspecified), the T/C is 102 % of control under setting [7]; 113 % of control (dose: 37.5 mg/kg/injection, schedule: Q01DX009 (ip), vehicle: saline with Tween-80); 93 % of control (dose: 50.0 mg/kg/injection, schedule: Q01DX001 (ip), vehicle: carboxymethylcellulose (CMC)); 114 % of control under setting [6]; 108 % of control (dose: 50.0 mg/kg/injection, schedule: Q04DX003 (ip), vehicle: saline); 96 % of control (dose: 100.0 mg/kg/injection, schedule: Q01DX001 (ip), vehicle: carboxymethylcellulose (CMC)). Further, the T/C is, setting by setting: (dose: 100.0 mg/kg/injection, schedule: Q01DX001 (ip), vehicle: saline) 92 % of control; under setting [4], 123 % of control; under setting [1], 156 % of control; (dose: 100.0 mg/kg/injection, schedule: Q04DX003 (ip), vehicle: saline) 113 % of control; (dose: 200.0 mg/kg/injection, schedule: Q01DX001 (ip), vehicle: carboxymethylcellulose (CMC)) 98 % of control; (dose: 200.0 mg/kg/injection, schedule: Q01DX001 (ip), vehicle: saline) 103 % of control. The T/C runs as follows: (dose: 225.0 mg/kg/injection, schedule: Q01DX009 (ip), vehicle: saline) 121 % of control; (dose: 300.0 mg/kg/injection, schedule: Q04DX003 (ip), vehicle: saline) 153 % of control; (dose: 400.0 mg/kg/injection, schedule: Q01DX001 (ip), vehicle: carboxymethylcellulose (CMC)) 118 % of control.

For the compound `CCOC(=O)C(=O)Nc1onc(C)c1[N+](=O)[O-]`, the T/C (dose: 100.0 mg/kg/injection, schedule: Q01DX001 (ip), vehicle: Klucel (hydroxypropylcellulose) (HPC)) is 91 % of control; the T/C under setting [4] is 93 % of control; the T/C (dose: 200.0 mg/kg/injection, schedule: Q01DX001 (ip), vehicle: Klucel (hydroxypropylcellulose) (HPC)) is 97 % of control; the T/C under setting [5] was 93 % of control; the T/C (dose: 400.0 mg/kg/injection, schedule: Q01DX001 (ip), vehicle: Klucel (hydroxypropylcellulose) (HPC)) is 100 % of control.

For `CC/C(=C\c1ccccc1)[N+](=O)[O-]`, the T/C under setting [7] is 102 % of control; the T/C (dose: 25.0 mg/kg/injection, schedule: Q04DX003 (ip), vehicle: Klucel (hydroxypropylcellulose) (HPC)) is 97 % of control; the T/C under setting [6] is 98 % of control; the T/C (dose: 50.0 mg/kg/injection, schedule: Q04DX003 (ip), vehicle: Klucel (hydroxypropylcellulose) (HPC)) was 90 % of control; the T/C under setting [8] was 103 % of control.

Take `O=S1(=O)C=CCCC=C1`: the T/C by setting is: (dose: 50.0 mg/kg/injection, schedule: Q04DX002 (ip), vehicle: Klucel (hydroxypropylcellulose) (HPC)) 105 % of control; (dose: 75.0 mg/kg/injection, schedule: Q04DX002 (ip), vehicle: Klucel (hydroxypropylcellulose) (HPC)) 112 % of control.

For `CCN=C(NCC)c1ccc(NC(=O)Nc2ccc(NC(=O)Nc3ccc(C(=NCC)NCC)cc3)cc2)cc1`, the T/C is 100 % of control (dose: 0.87 mg/kg/injection, schedule: Q01DX Z (ip), vehicle: water); 100 % of control (dose: 1.75 mg/kg/injection, schedule: Q01DX Z (ip), vehicle: water); 97 % of control (dose: 3.5 mg/kg/injection, schedule: Q01DX Z (ip), vehicle: water); 103 % of control (dose: 7.0 mg/kg/injection, schedule: Q01DX Z (ip), vehicle: water).

For `Cc1ccc(N2SC(Cl)(Cl)N(c3ccc(C)cc3)SC2(Cl)Cl)cc1`, the T/C runs as follows: under setting [8], 94 % of control; (dose: 200.0 mg/kg/injection, schedule: Q04DX003 (ip), vehicle: Klucel (hydroxypropylcellulose) (HPC)) 90 % of control; (dose: 400.0 mg/kg/injection, schedule: Q04DX003 (ip), vehicle: Klucel (hydroxypropylcellulose) (HPC)) 100 % of control.
